Reference: the supplement of paper PMC13380429

Legend:
Conditions in all cases: 72 h
[1] = system: Calu-3; assay: relative viability EC50 (midpoint between 100% and the lowest measured viability); higher = less toxic
[2] = system: Caco-2; assay: as above
[3] = system: HepG2; assay: as above
[4] = system: Vero E6; assay: as above
[5] = system: U2OS; assay: as above
[6] = system: Calu-3; assay: cell viability relative to DMSO; higher = less toxic
[7] = system: Caco-2; assay: as above
[8] = system: HepG2; assay: as above
[9] = system: Vero E6; assay: as above
[10] = system: U2OS; assay: as above
[11] = system: Calu-3; assay: drug sensitivity score (DSS) for viability; higher = more toxic; extreme values may be limits of the assay
[12] = system: Caco-2; assay: as above
[13] = system: HepG2; assay: as above
[14] = system: Vero E6; assay: as above
[15] = system: U2OS; assay: as above

Structure (SMILES) | relative viability EC50 [1] | relative viability EC50 [2] | relative viability EC50 [3] | relative viability EC50 [4] | relative viability EC50 [5] | cell viability ([6]; 1 nM) | cell viability ([6]; 10 nM) | cell viability ([6]; 100 nM) | cell viability ([6]; 1000 nM) | cell viability ([6]; 10000 nM) | cell viability ([7]; 1 nM) | cell viability ([7]; 10 nM) | cell viability ([7]; 100 nM) | cell viability ([7]; 1000 nM) | cell viability ([7]; 10000 nM) | cell viability ([8]; 1 nM) | cell viability ([8]; 10 nM) | cell viability ([8]; 100 nM) | cell viability ([8]; 1000 nM) | cell viability ([8]; 10000 nM) | cell viability ([9]; 1 nM) | cell viability ([9]; 10 nM) | cell viability ([9]; 100 nM) | cell viability ([9]; 1000 nM) | cell viability ([9]; 10000 nM) | cell viability ([10]; 1 nM) | cell viability ([10]; 10 nM) | cell viability ([10]; 100 nM) | cell viability ([10]; 1000 nM) | cell viability ([10]; 10000 nM) | drug sensitivity score [11] | drug sensitivity score [12] | drug sensitivity score [13] | drug sensitivity score [14] | drug sensitivity score [15]
Cc1cc(SCc2sc(-c3ccc(C(F)(F)F)c(F)c3)nc2C)ccc1OCC(=O)O [GW-0742] | > 10 µM | > 10 µM | > 10 µM | > 10 µM | > 10 µM | 95.1% | 94.8% | 92.5% | 90.5% | 98.3% | 99.9% | 101% | 89.1% | 106% | 87.2% | 102% | 74.6% | 94% | 90.1% | 99.9% | 96.3% | 101% | 96.7% | 98.3% | 99% | 102% | 103% | 97.9% | 104% | 99.7% | 0 | 0 | 0 | 0 | 0
CCC(=O)N1CCOc2c(cc(-c3ccc(OC)c(OC)c3)cc2OC[C@H]2CCCN(C)C2)C1 [I-CBP-112] | > 10 µM | > 10 µM | > 10 µM | > 10 µM | > 10 µM | 96.6% | 95% | 99.5% | 95.9% | 87.4% | 101% | 99.9% | 103% | 98.6% | 94.7% | 96.6% | 107% | 87.5% | 104% | 86% | 105% | 102% | 97.2% | 105% | 78.4% | 98.5% | 92% | 95.5% | 95.3% | 97.8% | 0.3 | 0 | 0.1 | 0.5 | 0
CN1C(=O)c2c(nn(Cc3ccc(-c4cccc(F)n4)cc3)c2Nc2ccccc2)N2C1=N[C@@H]1CCC[C@@H]12 [ITI214] | > 10 µM | > 10 µM | > 10 µM | > 10 µM | > 10 µM | 105% | 87% | 100% | 101% | 92.8% | 87.3% | 104% | 97.4% | 94.8% | 117% | 105% | 96.7% | 97.9% | 102% | 79.7% | 110% | 113% | 99.6% | 104% | 97.2% | 106% | 102% | 102% | 96.7% | 89.3% | 0 | 0 | 0.5 | 0 | 0
O=C(NCCO)c1cc(C(=O)NCCO)cc(C(=O)NCCO)c1 [LM-22A4] | > 10 µM | > 10 µM | > 10 µM | > 10 µM | > 10 µM | 104% | 105% | 97% | 102% | 91.9% | 96.8% | 96.1% | 97.3% | 99.2% | 100% | 104% | 103% | 101% | 97.5% | 102% | 105% | 98.3% | 106% | 98.4% | 105% | 94.6% | 97.7% | 96.1% | 99.5% | 93.5% | 0 | 0 | 0 | 0 | 0
FC(F)(F)c1ccc(Nc2ncnc3cc(-c4ncccc4C(F)(F)F)ccc23)cc1 [MK-2295] | > 10 µM | > 10 µM | > 10 µM | > 10 µM | > 10 µM | 112% | 96.9% | 101% | 100% | 81.9% | 100% | 95.8% | 91.9% | 83.9% | 90.6% | 92.7% | 94.9% | 91.5% | 116% | 98.4% | 99.7% | 98% | 98.3% | 97.8% | 95.2% | 100% | 95.5% | 101% | 98% | 97.5% | 0.5 | 1.2 | 0 | 0 | 0
Cn1cnnc1Sc1c([N+](=O)[O-])ncn1C [MNITMT] | > 10 µM | > 10 µM | > 10 µM | > 10 µM | > 10 µM | 100% | 111% | 94.9% | 85.5% | 92.2% | 99.9% | 96.3% | 104% | 94.2% | 95.8% | 100% | 99.9% | 93.1% | 94.1% | 99.7% | 105% | 99.3% | 99.2% | 97.5% | 88.7% | 102% | 97.7% | 99.5% | 97.4% | 98.4% | 1.7 | 0 | 0 | 0.1 | 0
O=C(NCCCCN1CCN(c2cccc(Cl)c2Cl)CC1)c1ccc2c(c1)Cc1ccccc1-2 [NGB-2904] | > 10 µM | > 10 µM | > 10 µM | > 10 µM | > 10 µM | 94.3% | 97.9% | 86.5% | 108% | 99.9% | 89.4% | 97.2% | 97% | 109% | 103% | 107% | 94.1% | 99.3% | 91.2% | 92.9% | 96.7% | 91.2% | 93.6% | 89.5% | 98.3% | 93.5% | 102% | 95.6% | 102% | 100% | 0 | 0 | 0 | 0 | 0
